Measured values: patent US20090326072A1, “USE OF 2-(2-NITRO-4-TRIFLUOROMETHYLBENZOYL)-l,3- CYCLOHEXANEDIONE IN THE TREATMENT OF PARKINSON'S DISEASE” (priority 2005, published 2009)
Entries after “also recorded” stand apart in the source; their conditions may differ. Like-named read-outs stand apart in the source and are kept apart here.

How the values were obtained:
[1] = system: AMPT rat model of Parkinson's disease; assay: AMPT rat model of Parkinson's disease (catalepsy descent latency and centre rearing counts); type: in vivo; details: for Mean Catalepsy Descent Latency (s) / Mean Centre Rearing Counts: 8 h post AMPT; for reversal of AMPT induced deficits in mean centre rearing counts (in words) / reversal of AMPT induced catalepsy (in words): single oral dose 10 mg/kg, -16 or -1 hours
Procedure: AMPT is a competitive inhibitor of tyrosine hydroxylase. Rats dosed with >150 mg/kg AMPT develop parkinsonian-like behavior and locomotor deficits (e.g. catalepsy and reduced rearing activity) within hours owing to the depletion of striatal dopamine concentration as a consequence of the reduced flux through the dopamine synthetic pathway. […] Indian J. Exp. Biol. 41, 1264-1268).
The effect was compared with appropriate vehicle control groups (oral vehicle was 1% carboxymethylcellulose; CMC) and a group that received a 150 mg/kg i.p. dose of L-dopa.
Eight hours after AMPT (or vehicle) administration rats were assessed for catalepsy and centre rearing activity. During the catalepsy test, the front paws of the rat were placed over a horizontal bar suspended 9 cm off the floor. The time taken for the rat to get off the bar (descent latency) was measured with a maximum time of 3 minutes being allowed. Centre rearing counts were determined over a 1 hour monitoring period using an automated activity monitoring system (AM1053). This system used an array of infrared beams to determine the activity and mobility of each animal. Each cage had 48 infrared beams, 24 on each of two levels arranged in an 8×16, 1″ (25.4 mm) pitch grid. The lower grid measured horizontal x, y movement, whilst the upper grid measured rearing movement. The activity detector operated by counting the number of times the beams changed from unbroken to broken and then incrementing the relevant counters.
These groups were compared to a positive control group (6) dosed with 225 mg/kg AMPT i.p.+150 mg/kg L-dopa i.p. 6.5 hour post AMPT dose. L-dopa was administered with a peripheral dopa decarboxylase inhibitor (benserazide), at 100 mg/kg i.p.
In a second and third series of experiments, the efficacy of eight other HPPD inhibitor test compounds were assessed in the AMPT rat model of Parkinson's disease (Tables 1.5 & 1.6). Male Sprague-Dawley rats (300-350 g) were administered a single i.p. dose of 225 mg/kg AMPT and a single oral dose of 10 mg/kg of the HPPD inhibitor test compound was administered either 1 or 16 hours prior to (−16 or −1 hours) AMPT administration. Behavioral assessment (catalepsy and centre rearing counts) was conducted 8 hours post AMPT administration. The effect was compared with a vehicle control group and a group receiving AMPT alone.

[2] = molecular target: T1, 4-hydroxyphenyl pyruvate dioxygenase (HPPD) (Rattus norvegicus, UniProt P32755); assay: Determination of 4-hydroxyphenyl pyruvate dioxygenase (HPPD) enzyme activity in vitro (rate of oxygen consumption, rat liver cytosol); type: biochemical; details: for inhibition at 0.1 µM: read-out: % Inhibition at 100 nM
T1 construct: rat liver cytosol (2.7 mg of protein/ml incubate); from tissue; host or cells: rat liver (cytosol, 110,000 g supernatant)
T1 sequence (P32755 whole entry): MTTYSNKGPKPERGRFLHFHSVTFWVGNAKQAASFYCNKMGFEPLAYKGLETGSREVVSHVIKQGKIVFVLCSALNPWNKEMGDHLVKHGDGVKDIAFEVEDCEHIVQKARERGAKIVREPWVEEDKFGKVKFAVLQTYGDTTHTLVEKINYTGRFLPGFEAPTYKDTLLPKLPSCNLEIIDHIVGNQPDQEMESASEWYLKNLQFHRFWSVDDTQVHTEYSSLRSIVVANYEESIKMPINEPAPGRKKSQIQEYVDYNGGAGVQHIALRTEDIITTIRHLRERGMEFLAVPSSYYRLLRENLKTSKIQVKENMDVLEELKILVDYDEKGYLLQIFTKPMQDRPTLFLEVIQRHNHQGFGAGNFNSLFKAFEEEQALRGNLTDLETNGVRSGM
Procedure: The principle of the assay is that 4-hydroxyphenyl pyruvate dioxygenase (HPPD), an enzyme that participates in the catabolism of tyrosine, catalyses the oxidative decarboxylation and rearrangement of 4-hydroxyphenylpyruvate (HPPA) to homogentisate, with the incorporation of both atoms of molecular oxygen into the product.
Rat liver was homogenised in buffer of the following composition; 0.25 M Sucrose, 5.4 mM EDTA, 20 mM Tris base, pH 7.4, (25% homogenate) using 6 passes of a Potter type homogeniser. The homogenate was then centrifuged at 1,800 g for 10 minutes at 4° C., the pellet was discarded and the supernatant centrifuged at 17,000 g for a further 15 minutes at 4° C. The pellet was then discarded and the supernatant centrifuged at 110,000 g for 80 minutes at 4° C. The supernatant containing the HPPD enzyme from this 110,000 g spin was collected and stored frozen at −70° C. and used in the assays of the test compounds (see below).
Prior to the start of the enzymatic reaction by the addition of HPPA substrate, the enzyme and test compound (inhibitor) were incubated together for 3 minutes.
In cases where the effects of several concentrations of an inhibitor were investigated, an IC50 value (the half-maximal inhibitory concentration of test compound) was determined by plotting the data using a non-linear regression curve-fitting program using a GraphPad Prism™ software package.
Data are expressed as mean values from two experiments except where indicated. Where appropriate the values are expressed as the mean±standard deviation.

[3] = system: plasma tyrosine; assay: Plasma tyrosine concentration kinetic profile in the rat following a single oral dose; type: in vivo; details: for Plasma Tyrosine Concentration: single oral dose 10 mg/kg; for Plasma tyrosine: single oral dose 2.0 mg/kg
Procedure: The plasma tyrosine concentration kinetic profile in the rat was determined for each of the HPPD inhibitor test compounds by administering a single oral dose to 10-12 week old male Sprague Dawley rats. Compounds 3.20, 3.13 and 3.26 were dosed at 2 mg/kg in 1% carboxymethylcellulose (1% CMC) vehicle, whilst compounds 3.22, 3.12, 3.15, 3.18, 3.23, 3.21, 3.11, 3.01, 3.24 and 3.25 were administered at 10 mg/kg in 1% CMC.
Blood samples to determine plasma tyrosine concentration were obtained at frequent intervals during the first 24 hours post-dose, and at 48 hours post-dose. These samples were either compared with blood samples obtained from control rats which only received an equivalent volume of the vehicle, 1% CMC, or by comparison with control samples obtained from the rats 1 hour prior to dosing with test the compound. Prior to the analysis of the samples for plasma tyrosine concentration, the blood samples were centrifuged at 1800 g for 10 minutes at 4° C. The plasma was collected and then filtered through a centrifugal micro partition device at 1500 g for 30 minutes at 4° C. The filtered plasma was then divided into two aliquots and stored frozen at −70° C. for subsequent gradient reverse phase high performance liquid chromatographic (HPLC) analysis of plasma tyrosine. Aliquots of plasma were analysed by HPLC using a 250×4.6 mm Hichrom S5ODS2 column at 30° C., eluted with a mobile phase of water/acetonitrile/trifluoroacetic acid (950:50:2 v/v/v) at a flow rate of 1 ml/min. Detection was by a diode array detector at 274 nm. Appropriate tyrosine standards were run alongside the samples for calibration purposes.
The plasma tyrosine concentration kinetic profile for the test compounds 3.20, 3.13 and 3.26 are shown at the time points 1, 2, 4, 6, 12, 24 and 48 hours post-dose in Table 1.1. The data shown are the mean±standard deviation (n=4), except for the 6 hour time point where the data were obtained from n=3 rats for the control and 3.26 groups.
The plasma tyrosine concentration kinetic profile for the test compounds 3.22, 3.12, 3.15, 3.18, 3.23, 3.21, 3.11, 3.01, 3.24 and 3.25 are shown at the time points −1 hour (pre-dose control), 1, 3, 6, 12, 24 and 48 hours post-dose, in Tables 1.2 and 1.3. The data shown are the mean±standard deviation (n=3), except for the −1 hour time point with compound 3.23, where n=2 (Table 1.2), and for the 3 and 6 hour time points with compound 3.21, where n=2 (Table 1.3).

[4] = Table 1.6: 225 mg/kg AMPT i.p. + 10 mg/kg oral at -16 hours
[5] = 100 nM test compound, rat liver cytosol, 3 min pre-incubation
[6] = Table 1.6: 225 mg/kg AMPT i.p. + 10 mg/kg oral at -1 hour
[7] = Table 1.5: 225 mg/kg AMPT i.p. + 10 mg/kg oral at -16 hours

| inhibition at 0.1 µM [2, 5] [%] | Compound | Mean Catalepsy Descent Latency (s) [1, 4] | Mean Centre Rearing Counts [1, 4] | reversal of AMPT induced deficits in mean centre rearing counts (in words) [1] | reversal of AMPT induced catalepsy (in words) ([1]; 10 mg/kg) | Plasma Tyrosine Concentration ([3]; 1 hour post-dose) [nmol/mL] | Plasma Tyrosine Concentration ([3]; 3 hours post-dose) [nmol/mL] | Plasma Tyrosine Concentration ([3]; 6 hours post-dose) [nmol/mL] | Plasma Tyrosine Concentration ([3]; 12 hours post-dose) [nmol/mL] | Plasma Tyrosine Concentration ([3]; 24 hours post-dose) [nmol/mL] | Plasma Tyrosine Concentration ([3]; 48 hours post-dose) [nmol/mL] | Mean Centre Rearing Counts [1, 7] | reversal of AMPT induced deficits in mean centre rearing counts (in words) ([1]; 10 mg/kg) | inhibition at 0.1 µM [2] [%] | Mean Catalepsy Descent Latency (s) [1, 7] | also measured |
| --- | --- | --- | --- | --- | --- | --- | --- | --- | --- | --- | --- | --- | --- | --- | --- | --- |
| 40 | CCn1ncc(C(=O)c2ccc(S(C)(=O)=O)c(OCCOC)c2Cl)c1O [Compound 3.12] | 16 ± 4.2^+++ s | 211 ± 65 counts | either partially or completely reversing | substantially reversed; also recorded: effective in reversing | 168 ± 20.1 | 289 ± 35.6 | 451 ± 72.7 | 969 ± 65.2 | 1543 ± 91.1 | 114 ± 8.0 |  |  |  |  |  |
| 37 | CS(=O)(=O)c1cc(C(F)(F)F)ccc1C(=O)C(C#N)C(=O)C1CC1 (stereo not shown) [Compound 3.15] |  |  | either partially or completely reversing | substantially reversed; also recorded: effective in reversing | 177 ± 21.7 | 299 ± 18.8 | 458 ± 29.4 | 671 ± 119.7 | 228 ± 76.6 | 117 ± 11.3 |  |  |  |  | Mean Catalepsy Descent Latency (s) [1, 6]: 23 ± 8.0^+++ s; Mean Centre Rearing Counts [1, 6]: 199 ± 54 counts |
| 24 | CC1(C)C(=O)C(C(=O)c2ccc(C(F)(F)F)cc2[N+](=O)[O-])C(=O)C(C)(C)C1=O [Compound 3.23] |  |  | either partially or completely reversing | substantially reversed; also recorded: effective in reversing | 173 ± 22.0 | 307 ± 28.0 | 502 ± 37.5 | 1041 ± 88.5 | 1835 ± 444.1 | 299 ± 202.8 | 273 ± 63 counts |  |  | 10 ± 3.0^+++ s |  |

More lines, now with the values behind:

| Compound | inhibition at 0.1 µM [2, 5] [%] | Mean Catalepsy Descent Latency (s) [1, 4] | Mean Centre Rearing Counts [1, 4] | reversal of AMPT induced deficits in mean centre rearing counts (in words) [1] | reversal of AMPT induced catalepsy (in words) ([1]; 10 mg/kg) | Plasma Tyrosine Concentration ([3]; 1 hour post-dose) [nmol/mL] | Plasma Tyrosine Concentration ([3]; 3 hours post-dose) [nmol/mL] | Plasma Tyrosine Concentration ([3]; 6 hours post-dose) [nmol/mL] | Plasma Tyrosine Concentration ([3]; 12 hours post-dose) [nmol/mL] | Plasma Tyrosine Concentration ([3]; 24 hours post-dose) [nmol/mL] | Plasma Tyrosine Concentration ([3]; 48 hours post-dose) [nmol/mL] | Mean Centre Rearing Counts [1, 7] | reversal of AMPT induced deficits in mean centre rearing counts (in words) ([1]; 10 mg/kg) | inhibition at 0.1 µM [2] [%] | Mean Catalepsy Descent Latency (s) [1, 7] | also measured |
| --- | --- | --- | --- | --- | --- | --- | --- | --- | --- | --- | --- | --- | --- | --- | --- | --- |
| CS(=O)(=O)c1ccc(C(=O)C2C(=O)CCCC2=O)c(Cl)c1COCC(F)(F)F [Compound 3.18] |  |  |  |  | substantially reversed; also recorded: effective in reversing | 177 ± 3.5 | 303 ± 3.9 | 504 ± 29.4 | 1027 ± 62.7 | 1987 ± 133.0 | 313 ± 216.6 | 359 ± 116^+ counts | reached statistical significance; also recorded: either partially or completely reversing | 31 |  |  |
| Cc1c(C(=O)C2C=NN(C)C2=O)ccc(S(C)(=O)=O)c1C1=NOCC1 (stereo not shown) [Compound 3.20] |  | 8 ± 1.8^+++ s | 409 ± 50^+++ counts |  | substantially reversed; also recorded: effective in reversing |  |  |  |  |  |  |  | reached statistical significance; also recorded: either partially or completely reversing | 57 |  | Plasma tyrosine ([3]; 1 hour post-dose): 169 ± 13.6 nmol/mL; Plasma tyrosine ([3]; 2 hours post-dose): 231 ± 30.2 nmol/mL; Plasma tyrosine ([3]; 4 hours post-dose): 353 ± 50.9 nmol/mL; Plasma tyrosine ([3]; 6 hours post-dose): 479 ± 40.0 nmol/mL; Plasma tyrosine ([3]; 12 hours post-dose): 796 ± 44.3 nmol/mL; Plasma tyrosine ([3]; 24 hours post-dose): 745 ± 171.8 nmol/mL; Plasma tyrosine ([3]; 48 hours post-dose): 96 ± 1.7 nmol/mL |
| Cc1nc(C(F)(F)F)ccc1C(=O)C1C(=O)C2CCC(C2)C1=O.[K+] (stereo not shown) [Compound 3.24] |  |  |  | either partially or completely reversing | substantially reversed; also recorded: effective in reversing | 184 ± 27.8 | 313 ± 49.9 | 548 ± 83.9 | 1008 ± 85.2 | 2110 ± 111.1 | 2571 ± 167.7 | 189 ± 36 counts |  | 5 | 15 ± 8.9^+++ s | inhibition at 0.3 µM ([2]; read-out: % inhibition at 300 nM): 34% |
